# Experimental data reported in patent publication US4416871A, “Inhibition by peptides of tolerance to and physical dependence on morphine” (The United States of America as represented by the …, priority 1982, dated 1983).
# What was measured:
# Format in all cases: in vivo
# morphine-dependent mice [1] = assay: Analgesia during morphine pellet implantation: jump threshold on electrified grid; settings: peptide-injected mice receiving morphine
# Procedure: (§1) The level of analgesia was tested on each of the three days of the experiment. This was accomplished by measuring the jump threshold to an increasing electrical current in an electrified grid attached to a BRS/LVE #SGS-004 shock generator/scrambler (Evans, W. D., Phychopharmacol., 2, 318-325[1961]). Mice were tested only once and thereafter discarded from the experiment. When determining the effect of the peptide on overt signs of physical dependence (body temperature and weight) and tolerance (body temperature and analgesia), the peptide or vehicle was injected only once on the third day of the morphine or placebo pellet implantation (25 hours prior to the removal of the pellet).
# Inhibition of development of tolerance to and physical dependence upon morphine by Z-Pro-D-Leu. The jump threshold in vehicle-injected, morphine-dependent mice decreased, indicating development of tolerance to the analgesic properties of morphine. Threshold scores were: 4.00±0.18;3.50±0.52; 2.55±0.44; on days 1-3 respectively, (n=6 for each group).
# morphine-dependent mice [2] = assay: Body temperature, body weight and mortality during 3-day morphine pellet implantation with multiple peptide injections
# Procedure: Male C57B1/6J, Swiss Webster, and ICR mice weighing 26±4 g (SD) were used in these studies.
# (§2) The mice were randomly divided into two groups. One received SC injections of water (vehicle) while the other received the peptide under investigation (50 μg/mouse on day one). Two hours later the mice were further subdivided and each subgroup was implanted with placebo or morphine pellets. The injections of vehicle and peptide were repeated 24 and 48 hours after the first injection in their respective groups. Morphine pellets containing 75 mg of morphine free base were implanted subcutaneously (SC) between 10-11 A.M. and were removed 3 days later at the same time. The control animals were implanted with placebo pellets. Body temperature and weight were measured daily at 11 A.M. Temperature was measured using a lubricated rectal probe inserted 2.5 cm into the rectum and measured with a telethermometer (Model 43TA Yellow Springs Instrument Co., Yellow Springs, Ohio).
# A similar relationship was found for the loss in body weight. Swiss Webster mice lost 16% and 14% in body weight when receiving Z-Pro-D-Leu or vehicle respectively. The C57B1/6J mice given Z-Pro-D-Leu/morphine lost 14%, while the vehicle/morphine group lost 11% in body weight during this period regardless of peptide or vehicle injections. There was one significant strain difference, i.e. a greater mortality during morphine treatment of C57B1/6J mice ([…], Binomial test).
# morphine-dependent mice [3] = assay: Naloxone-precipitated withdrawal: body temperature and withdrawal signs
# Procedure: as §2
# (§3) To determine the effects of peptide treatment on the development of physical dependence, the abstinence syndrome was precipitated using the morphine antagonist naloxone (Endo Laboratories Inc., N.Y.) at the appropriate dose (0.1, 0.25, or 0.50 mg/kg) injected intraperitoneally (IP) one hour following removal of morphine and placebo pellets. Pellet removal was performed 24 hours after the last peptide injection. These mice were monitored for changes in body temperature (see above) and body weight at 15 min. intervals for one hour after the naloxone injection. Effects of removing the pellets (withdrawing morphine) were also assessed by utilizing body temperature and weight as physical dependence parameters; however, these measurements were made at 2 hour intervals for 10 hours after the removal of the pellets. Placebo implanted mice were treated in the same manner as the morphine pellet implanted mice.
# [4] = Brain levels of morphine, fluorometric; settings: Swiss Webster mice, third day of morphine treatment, n=6
# Procedure: Brain levels of morphine were measured in mice which received either the peptide or vehicle injections. For these studies mice were also sacrificed on the third day following morphine implantation. The mice were then sacrificed by decapitation, brains were rapidly removed, frozen on dry ice, and stored at -80° C. until assay for morphine content. Brain morphine concentrations were determined fluorometrically (Bhargava, H. N., J. Pharma. Sci., 66, 1044-1045[1977]).
# morphine-dependent mice [5] = assay: Naloxone-precipitated withdrawal: body temperature and withdrawal signs; remark: listed apart in the source
# morphine-dependent mice [6] = assay: Abrupt withdrawal after pellet removal: body temperature and body weight for 10 hours (FIG. 1); settings: Swiss Webster mice, any time point up to 10 hours
# Procedure: FIG. 1 illustrates the inhibition of development of physical dependence (abrupt withdrawal) by Z-Pro-D-Leu. Swiss Webster mice were implanted with either morphine or placebo tablets for a period of 3 days. Following removal of the pellets, body temperature and body weight were followed for 10 hours. Panel (a) represents the change in body temperature: (Δ--Δ) Z-Pro-D-Leu/morphine; (O--O) vehicle/morphine; ( -- ) Z-Pro-D-Leu/placebo; ( -- ) vehicle/placebo. Panel (b) represents the maximal loss in body weight during the same period.
# as §3, with “Placebo implanted mice were treated in the same manner as the morphine pellet implanted mice.” left out
# morphine-dependent mice [7] = assay: Tolerance to hypothermic and analgesic effects of ICV morphine 24 hours after pellet removal; settings: for Jump Threshold: one hr. after ICV morphine
# Procedure: as §1
# Tolerance to hypothermic and analgesic effects of morphine injected intracerebroventricularly (ICV) was assessed 24 hours after the removal of the pellets in mice not injected with naloxone. The ICV injection was 40 μg of morphine sulfate solution in 10 μl volume. Body temperature was recorded prior to and at 10 and 15 min. after injection of morphine. Analgesia was determined one hour after the ICV injection.
# [8] = C57B1/6J, Z-Pro-D-Leu/morphine, peptide day 3 only, n=6, ICV morphine challenge
# [9] = C57B1/6J, Z-Pro-D-Leu/placebo pellets, n=8, ICV morphine challenge
# [10] = C57B1/6J, Z-Pro-D-Leu/placebo, peptide day 3 only, n=6, ICV morphine challenge
# [11] = Swiss Webster, Z-Pro-D-Leu/morphine pellets, n=15, ICV morphine challenge
# [12] = Swiss Webster, Z-Pro-D-Leu/placebo pellets, n=8, ICV morphine challenge
substance,measurement,setting,value
Z-Pro-D-Leu,jump threshold score,morphine-dependent mice [1]; day 1,4.07±0.27
same,jump threshold score,morphine-dependent mice [1]; day 2,4.27±0.62
same,jump threshold score,morphine-dependent mice [1]; day 3,4.45±0.64
same,"number of deaths, peptide/morphine compared with vehicle/morphine","morphine-dependent mice [2]; C57B1/6J P=0.32, Swiss Webster P=0.65, Binomial test",no difference in the number of deaths
same,body temperature (X) on the third day of morphine treatment,"morphine-dependent mice [2]; Swiss Webster mice, morphine pellets, multiple injections of peptide 50 μg/mouse SC, day 3, n=14",-1.5 °C
same,body temperature on days 1 and 2 versus vehicle,"morphine-dependent mice [2]; Swiss Webster or C57B1/6J mice receiving morphine, days 1 and 2",no significant difference in body temperature
same,"Withdrawal, % of control (jumping, shakes, diarrhea)","morphine-dependent mice [3]; Table II, peptide 50 μg per mouse, naloxone 0.1 mg/kg",9%
same,"Δt, °C. (difference in body temperature just prior to naloxone and 30 min. thereafter)","morphine-dependent mice [3]; Table II, peptide 50 μg per mouse, naloxone 0.1 mg/kg, mean ± SD",-0.09 ± 0.58 °C
same,"Withdrawal, % of control","morphine-dependent mice [3]; Table III, dose 50 μg",9%
same,"Δt, °C.","morphine-dependent mice [3]; Table III, dose 50 μg",-0.09 ± 0.58 °C
same,lowest dose still effective in blocking physical dependence on morphine,"morphine-dependent mice [3]; dose-response experiments, Table III",5 μg per mouse
same,ability to block development of physical dependence on morphine,"morphine-dependent mice [3]; naloxone-precipitated withdrawal, Tables II and III",exhibited activity
same,brain morphine levels,[4],288 ± 99 µg/g
same,"Withdrawal, % of control","morphine-dependent mice [5]; Table III, dose 0.5 μg",100%
same,"Withdrawal, % of control","morphine-dependent mice [5]; Table III, dose 5 μg",25%
same,"Δt, °C.","morphine-dependent mice [5]; Table III, dose 5 μg",-0.05 ± 0.37 °C
same,body temperature response 30 min after naloxone,morphine-dependent mice [5]; peptide injection only on the third day of morphine treatment,hypothermic response
same,body temperature response 30 min after naloxone,"morphine-dependent mice [5]; peptide/morphine treatment, multiple injections, naloxone 0.1-0.50 mg/kg IP",mild hyperthermia
same,"hypothermia and loss of body weight during abstinence, peptide/morphine versus the two control groups",morphine-dependent mice [6],no significant difference
same,Δt (15 min.),"morphine-dependent mice [7]; C57B1/6J, Z-Pro-D-Leu/morphine pellets, n=9, ICV morphine challenge",-2.12 ± 0.52
same,Δt (10 min.),"morphine-dependent mice [7]; C57B1/6J, Z-Pro-D-Leu/morphine pellets, n=9, ICV morphine challenge 24 hrs after pellet removal",-2.04 ± 0.42
same,Δt (10 min.),morphine-dependent mice [7]; [8],-0.75 ± 0.19
same,Δt (15 min.),morphine-dependent mice [7]; [8],-1.00 ± 0.16
same,Jump Threshold,"morphine-dependent mice [7]; C57B1/6J, Z-Pro-D-Leu/morphine, peptide day 3 only, n=6",2.12 ± 0.34
same,Δt (10 min.),morphine-dependent mice [7]; [9],-1.76 ± 0.33
same,Δt (15 min.),morphine-dependent mice [7]; [9],-2.19 ± 0.41
same,Jump Threshold,"morphine-dependent mice [7]; C57B1/6J, Z-Pro-D-Leu/placebo pellets, n=8",3.79 ± 0.39
same,Δt (10 min.),morphine-dependent mice [7]; [10],-1.85 ± 0.25
same,Δt (15 min.),morphine-dependent mice [7]; [10],-1.88 ± 0.17
same,Jump Threshold,"morphine-dependent mice [7]; C57B1/6J, Z-Pro-D-Leu/placebo, peptide day 3 only, n=6",4.05 ± 0.85
same,Δt (10 min.),morphine-dependent mice [7]; [11],-1.10 ± 0.29
same,Δt (15 min.),morphine-dependent mice [7]; [11],-1.32 ± 0.34
same,Jump Threshold,"morphine-dependent mice [7]; Swiss Webster, Z-Pro-D-Leu/morphine pellets, n=15",4.33 ± 0.54
same,Δt (10 min.),morphine-dependent mice [7]; [12],-1.16 ± 0.30
same,Δt (15 min.),morphine-dependent mice [7]; [12],-1.48 ± 0.46
same,Jump Threshold,"morphine-dependent mice [7]; Swiss Webster, Z-Pro-D-Leu/placebo pellets, n=8",4.18 ± 0.41
same,response to ICV injection of morphine,morphine-dependent mice [7]; peptide given during chronic morphine treatment,not significantly different from morphine-naive mice
same,response to ICV injection of morphine,morphine-dependent mice [7]; peptide given only on the third day of pellet implantation,did not effectively alter the manifestation of tolerance
